The values that follow come from patent US9725442B2, “Heterocyclic derivative having PGD2 receptor antagonist activity” (Shionogi & Co., Ltd., priority 2011, dated 2017).

As usually defined, the IC50 is the concentration at which inhibition is half-maximal. A low value points to higher potency. What is called Ki is the equilibrium dissociation constant of an inhibitor or competing ligand from its target. For orientation: solubility means how much of the substance goes into solution per volume. A higher solubility goes with much dissolved substance.

In series [1] the target is Human DP1 receptor (Homo sapiens (Human), UniProt Q13258). Nature of the series: Human DP1 inhibitory activity in DP1-expressing cell (PGD2-induced cAMP). It counts as cell-based. How it is done:
Compounds were categorized as AA (cAMP is less than 100 nM) and A (cAMP is more than 100 nM and less than 5000 nM) as shown in Table 99 and 100.

Series [2] concerns the target CRTH2 (Homo sapiens (Human), UniProt Q9Y5Y4). The series can be described thus: CRTH2 receptor binding inhibitory activity ([3H]-PGD2 displacement, membranes of CRTH2-expressing K562 cell). To be noted: [3H]-PGD2 displacement, membrane of CRTH2-expressing K562 cell, read-out: Ki. The method in brief:
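CRTH2-expressing K562 membranes (20 μg/well) in 50 mM Tris/HCl pH 7.4 with 10 mM MgCl2 were incubated with [3H]-PGD2 for 60 min at room temperature, then filtered.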

Series [3] addresses CYP2D6 (Homo sapiens (Human), UniProt P10635). Nature of the series: CYP inhibition test, dextromethorphan O-demethylation. It counts as in vitro ADME. Particulars: pooled human hepatic microsome, 5 μmol/L dextromethorphan. An excerpt:
(§1) Using commercially available pooled human hepatic microsome, and employing, as markers, 7-ethoxyresorufin O-deethylation (CYP1A2), tolbutamide methyl-hydroxylation (CYP2C9), mephenyloin 4′-hydroxylation (CYP2C19), dextromethorphan O-demethylation (CYP2D6), and terfenedine hydroxylation as typical substrate metabolism reactions of human main five CYP enzyme forms (CYP1A2, 2C9, 2C19, 2D6, 3A4), an inhibitory degree of each metabolite production amount by a compound of the present compound was assessed.
(§2) The reaction conditions were as follows: substrate, 0.5 μmol/L ethoxyresorufin (CYP1A2), 100 μmol/L tolbutamide (CYP2C9), 50 μmol/L S-mephenyloin (CYP2C19), 5 μmol/L dextromethorphan (CYP2D6), 1 μmol/L terfenedine (CYP3A4); reaction time, 15 minutes; reaction temperature, 37° C.; enzyme, pooled human hepatic microsome 0.2 mg protein/mL; concentration of a compound of the present invention, 1, 5, 10, 20 μmol/L (four points).
(§3) Each five kinds of substrates, human hepatic microsome, or a compound of the present invention in 50 mM Hepes buffer as a reaction mixture was added to a 96-well plate at the composition as described above, NADPH, as a cofactor was added to initiate metabolism reactions as markers and. After the incubation at 37° C. for 15 minutes, a methanol/acetonitrile=1/1 (v/v) solution was added to stop the reaction. After the centrifugation at 3000 rpm for 15 minutes, resorufin (CYP1A2 metabolite) in the supernatant was quantified by a fluorescent multilabel counter and tolbutamide hydroxide (CYP2C9 metabolite), mephenyloin 4′ hydroxide (CYP2C19 metabolite), dextrorphan (CYP2D6 metabolite), and terfenadine alcohol (CYP3A4 metabolite) were quantified by LC/MS/MS.

The target of series [4] is CYP3A4 (Homo sapiens (Human), UniProt P08684). The series can be described thus: CYP inhibition test, terfenedine hydroxylation. To be noted: pooled human hepatic microsome, 1 μmol/L terfenedine. Type of series: in vitro ADME.
Description: as §1, §2, §3

The target in series [5] is CYP3A4 enzyme expressed in Escherichia coli (Homo sapiens (Human), UniProt P08684). Nature of the series: CYP3A4 fluorescent MBI test. It counts as in vitro ADME. Particulars: pre-reaction time 0 or 30 minutes, substrate 7-BFC; read-out: CYP3A4 MBI, difference between IC50 values with and without preincubation. As for the experimental part:
The CYP3A4 fluorescent MBI test is a test of investigating enhancement of CYP3A4 inhibition of a compound by a metabolism reaction, and the test was performed using, as CYP3A4 enzyme expressed in Escherichia coli and employing, as an index, a reaction in which 7-benzyloxytrifluoromethylcoumarin (7-BFC) is debenzylated by the CYP3A4 enzyme to produce a metabolite, 7-hydroxytrifluoromethylcoumarin (HFC) emitting fluorescent light.
The reaction conditions were as follows: substrate, 5.6 μmol/L 7-BFC; pre-reaction time, 0 or 30 minutes; reaction time, 15 minutes; reaction temperature, 25° C. (room temperature); CYP3A4 content (expressed in Escherichia coli), at pre-reaction […], at reaction […] (at 10-fold dilution); concentration of a compound of the present, 0.625, 1.25, 2.5, 5, 10, 20 μmol/L (six points).
An enzyme in a K-Pi buffer (pH 7.4) and a compound solution of the present invention as a pre-reaction mixture were added to a 96-well plate at the composition of the pre-reaction, a part of it was transferred to another 96-well plate so that it was 1/10 diluted by a substrate in a K-Pi buffer, NADPH as a co-factor was added to initiate a reaction as an index (without preincubation) and, after a predetermined time of a reaction, acetonitrile/0.5 mol/L Tris(trishydroxyaminomethane)=4/1 (V/V) was added to stop the reaction. In addition, NADPH was added to a remaining preincubation solution to initiate a preincubation (with preincubation) and, after a predetermined time of a preincubation, a part was transferred to another plate so that it was 1/10 diluted with a substrate and a K-Pi buffer to initiate a reaction as an index. After a predetermined time of a reaction, acetonitrile/0.5 mol/L Tris(trishydroxyaminomethane)=4/1 (V/V) was added to stop the reaction. For the plate on which each index reaction had been performed, a fluorescent value of 7-HFC which is a metabolite was measured with a fluorescent plate reader. (Ex=420 nm, Em=535 nm).

Series [6] is described as follows: Solubility test (1% DMSO addition, artificial intestinal juice pH 6.8). It counts as physicochemical. Particulars: fassgf or other biorelevant, kinetic from dmso stock, artificial intestinal juice pH 6.8, 16 hours at 25° C. As for the experimental part:
A 10 mmol/L solution of the compound of the present invention is prepared with DMSO, and 6 μL of the compound solution is added to 594 μL of an artificial intestinal juice (water and 118 mL of 0.2 mol/L NaOH reagent are added to 250 mL of 0.2 mol/L potassium dihydrogen phosphate reagent to reach 1000 mL) with a pH of 6.8. The mixture is left standing for 16 hours at 25° C., and the mixture is vacuum-filtered. The filtrate is two-fold diluted with methanol/water=1/1 (V/V), and the compound concentration in the filtrate is measured with HPLC or LC/MS/MS by the absolute calibration method.

Setting [7] is: IC50 of PGD2 (60 nM)-induced cAMP increase, human DP1 receptor expressing Jurkut cell.
Where [8] appears, read: category of cAMP IC50, human DP1 receptor expressing Jurkut cell.
Setting [9] is: CRTH2 receptor binding, categorized AAAA/AAA.

Read-outs that look alike come from different tables or passages of the source.

Sequence of CRTH2 (Q9Y5Y4 whole entry): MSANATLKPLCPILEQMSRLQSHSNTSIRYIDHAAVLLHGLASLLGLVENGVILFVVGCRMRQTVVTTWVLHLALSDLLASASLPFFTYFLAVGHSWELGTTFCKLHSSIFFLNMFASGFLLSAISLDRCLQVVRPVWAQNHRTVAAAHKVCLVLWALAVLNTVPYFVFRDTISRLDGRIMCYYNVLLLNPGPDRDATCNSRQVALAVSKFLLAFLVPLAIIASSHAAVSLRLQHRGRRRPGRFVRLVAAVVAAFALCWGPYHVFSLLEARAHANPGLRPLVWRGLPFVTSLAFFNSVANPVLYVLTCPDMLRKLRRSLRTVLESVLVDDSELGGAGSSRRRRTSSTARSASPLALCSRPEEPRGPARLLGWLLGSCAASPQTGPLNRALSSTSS
Sequence of CYP2D6 (P10635 whole entry): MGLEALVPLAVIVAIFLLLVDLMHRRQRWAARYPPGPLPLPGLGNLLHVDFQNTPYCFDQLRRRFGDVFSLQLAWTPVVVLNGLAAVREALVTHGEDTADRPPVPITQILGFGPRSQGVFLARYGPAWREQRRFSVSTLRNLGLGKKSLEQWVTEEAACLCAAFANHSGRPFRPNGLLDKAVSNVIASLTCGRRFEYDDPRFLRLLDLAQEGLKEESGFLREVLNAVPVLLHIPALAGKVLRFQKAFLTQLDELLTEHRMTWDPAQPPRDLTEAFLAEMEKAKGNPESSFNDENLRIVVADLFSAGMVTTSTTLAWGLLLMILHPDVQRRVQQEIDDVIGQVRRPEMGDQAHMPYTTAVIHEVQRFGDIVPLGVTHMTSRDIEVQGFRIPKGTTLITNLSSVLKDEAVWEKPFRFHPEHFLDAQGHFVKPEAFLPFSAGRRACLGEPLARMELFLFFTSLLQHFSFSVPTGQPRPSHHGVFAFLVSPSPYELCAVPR
Sequence of Human DP1 receptor (Q13258 whole entry): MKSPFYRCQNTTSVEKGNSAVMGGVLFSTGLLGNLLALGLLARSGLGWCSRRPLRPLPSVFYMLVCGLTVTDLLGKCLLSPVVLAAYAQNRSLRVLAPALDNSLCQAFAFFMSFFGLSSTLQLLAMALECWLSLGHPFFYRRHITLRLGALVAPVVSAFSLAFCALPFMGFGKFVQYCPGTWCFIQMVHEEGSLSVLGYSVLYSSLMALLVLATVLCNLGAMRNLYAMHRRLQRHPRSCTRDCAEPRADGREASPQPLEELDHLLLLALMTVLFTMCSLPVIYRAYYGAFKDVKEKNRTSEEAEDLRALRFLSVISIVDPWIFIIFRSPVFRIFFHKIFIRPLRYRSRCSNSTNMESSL
Sequence of CYP3A4 (P08684 whole entry): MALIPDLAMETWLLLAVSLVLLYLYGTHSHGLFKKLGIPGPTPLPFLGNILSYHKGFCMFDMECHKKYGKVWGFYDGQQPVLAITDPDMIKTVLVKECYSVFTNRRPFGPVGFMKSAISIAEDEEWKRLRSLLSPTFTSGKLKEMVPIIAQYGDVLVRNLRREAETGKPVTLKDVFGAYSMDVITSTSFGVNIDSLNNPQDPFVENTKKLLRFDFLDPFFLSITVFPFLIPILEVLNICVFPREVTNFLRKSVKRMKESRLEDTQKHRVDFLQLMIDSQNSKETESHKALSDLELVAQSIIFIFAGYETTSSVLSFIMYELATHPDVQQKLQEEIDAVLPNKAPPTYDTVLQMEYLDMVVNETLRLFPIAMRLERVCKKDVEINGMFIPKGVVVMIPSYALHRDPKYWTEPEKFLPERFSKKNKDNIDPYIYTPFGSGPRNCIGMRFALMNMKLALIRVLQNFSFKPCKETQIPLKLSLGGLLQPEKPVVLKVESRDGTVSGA
Sequence of CYP3A4 enzyme expressed in Escherichia coli (P08684 whole entry): as above

Take `CC(C)Oc1ccc(S(=O)(=O)N2C[C@H](n3nc(CC(=O)O)c4ccc(F)cc43)C[C@H]2C#N)cc1` [Compound I-7]: the IC50 in series [1] (setting [7]) was 23 nM; in series [1] (setting [8]), less than 100 nM; in series [3] it was greater than 20000 nM; in series [4], greater than 20000 nM. Besides, in series [2] (setting [9]), the Ki was less than 100 nM. Besides, the difference in IC50 with vs without preincubation in series [5] was no more than 3000 nM. The compound also yielded a solubility at 16 h in series [6] greater than 50 µM.

As for `CC(C)Oc1ccc(S(=O)(=O)N2C[C@@H](C)[C@@H](n3nc(CC(=O)O)c4ccc(F)cc43)C2)cc1` [Compound I-37], the IC50 in series [1] (setting [7]) was 10 nM; in series [1] (setting [8]), less than 100 nM; in series [3], greater than 20000 nM; in series [4] it was greater than 20000 nM. Besides, the Ki in series [2] turned out to be 2.4 nM. Besides, the difference in IC50 with vs without preincubation in series [5] is no more than 3000 nM. Moreover, the solubility at 16 h in series [6] is greater than 50 µM.

For the compound `CC(C)Oc1ccc(S(=O)(=O)N2C[C@@H](C)[C@@H](n3nc(CC(=O)O)c4ccc(F)cc43)C2)c(F)c1` [Compound I-52], the results for the half-maximal inhibitory concentration (IC50) in series [1] (setting [8]), in series [3] and in series [4] were less than 100 nM, greater than 20000 nM and greater than 20000 nM, respectively. Also, the Ki in series [2] (setting [9]) is less than 100 nM; in series [2], 5.1 nM. Besides, the difference in IC50 with vs without preincubation in series [5] was no more than 3000 nM. The compound further came in with a solubility at 16 h in series [6] greater than 50 µM.

On to `CC(C)Oc1ccc(S(=O)(=O)N2C[C@@H](C)[C@@H](n3nc(CC(=O)O)c4ccc(F)cc43)C2)cn1` [Compound I-57], for which the IC50 is less than 100 nM in series [1] (setting [8]), greater than 20000 nM in series [3] and greater than 20000 nM in series [4]. The Ki in series [2] (setting [9]) is less than 100 nM; in series [2] it was 3.8 nM. Moreover, in series [5], the difference in IC50 with vs without preincubation is no more than 3000 nM. The compound further displayed a solubility at 16 h in series [6] greater than 50 µM.

`CCOc1ccc(S(=O)(=O)N2C[C@@H](C)[C@@H](n3nc(CC(=O)O)c4ccccc43)C2)cn1` [Compound I-96]: the IC50 in series [1] (setting [7]) is 40 nM; in series [1] (setting [8]), less than 100 nM; in series [3], greater than 20000 nM; in series [4], greater than 20000 nM. Besides, the figures for the Ki in series [2] (setting [9]) and in series [2] were less than 100 nM and 37 nM, respectively. In series [5], the difference in IC50 with vs without preincubation is no more than 3000 nM. In series [6], this compound returned a solubility at 16 h greater than 50 µM.
